From patent publication US12447147B2, “Methods of treating, ameliorating, and/or preventing cancer using pyrvinium compositions” (Thomas Jefferson University, priority 2019, dated 2025)
Read-outs that look alike come from different tables or passages of the source.

Columns and labels:
COX2 DNA binding to HuR = COX2 DNA binding to HuR (Homo sapiens, UniProt Q15717); experiment: Inhibition of COX2 DNA binding to HuR; details: for Mean Max % I: mean of n1 and n2; for Max % I, n1: replicate n1; for Max % I, n2: replicate n2
Chain of COX2 DNA binding to HuR (Q15717 whole entry): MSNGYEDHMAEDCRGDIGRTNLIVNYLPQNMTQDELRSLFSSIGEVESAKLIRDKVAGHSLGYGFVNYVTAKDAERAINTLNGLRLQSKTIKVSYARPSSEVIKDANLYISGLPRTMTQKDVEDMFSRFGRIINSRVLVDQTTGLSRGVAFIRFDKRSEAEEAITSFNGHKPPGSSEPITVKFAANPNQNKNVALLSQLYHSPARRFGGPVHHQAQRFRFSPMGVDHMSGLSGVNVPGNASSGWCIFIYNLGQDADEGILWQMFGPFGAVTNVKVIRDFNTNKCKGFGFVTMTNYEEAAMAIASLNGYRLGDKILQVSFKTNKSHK

VEGF DNA binding to HuR = VEGF DNA binding to HuR (Homo sapiens, UniProt Q15717); experiment: Inhibition of VEGF DNA binding to HuR; details: for Mean Max % I: mean of n1 and n2; for Max % I, n1: replicate n1; for Max % I, n2: replicate n2
Chain of VEGF DNA binding to HuR (Q15717 whole entry): as above

[1] = molecular target: HuR binding to target mRNA COX2 (Homo sapiens, UniProt Q15717); experiment: Inhibition of HuR binding to target mRNA COX2; details: given as a range
Chain of HuR binding to target mRNA COX2 (Q15717 whole entry): as above

[2] = molecular target: HuR binding to target mRNA VEGF (Homo sapiens, UniProt Q15717); experiment: Inhibition of HuR binding to target mRNA VEGF; details: given as a range
Chain of HuR binding to target mRNA VEGF (Q15717 whole entry): as above

[3] = In vivo models, pyrvinium pamoate and ademaciclib (FIGS. 14A-14C)
MIA-PaCa2 cells = experiment: MIA-PaCa2 flank tumor growth in mice; type: in vivo, nude mice; details: for tumor growth: 1 mg/kg IP 3 times weekly vs vehicle, MIA-PaCa2 flank tumors started at 100 mm^3
Excerpt: (§1) KPC mice have both an activating KRAS mutation (KRAS is mutated in up to 90% of PDA) and a loss of P53 driven by a pancreas specific Cre promoter. The KTC organoid model is derived from a GEMM that has a driver KRAS mutation and greater than 2-fold overexpression of HuR, specifically in the pancreas.

CFPAC = experiment: 5 day viability assay (Pico Green), CFPAC; type: cell-based; details: 120 h
Protocol: (§2) The efficacy of pyrvinium pamoate was determined in a panel of PDA cell lines.

[4] = oral tablets or suspensions; urine up to 96 hours after each dose; cited from earlier work
Panc-1 = experiment: 5 day viability assay (Pico Green), Panc-1; type: cell-based; details: Homo sapiens, 120 h
Protocol: as §2

PDX-X139 = experiment: 5 day viability assay (Pico Green), PDX cell line; type: cell-based; details: 120 h
Excerpt: as §1

KTC Organoids = experiment: 5 day viability assay (Pico Green), KTC organoids; type: cell-based; details: Mus musculus, 120 h
Excerpt: as §1

MIA-PaCa2 = experiment: 5 day viability assay (Pico Green), MIA-PaCa2; type: cell-based; details: Homo sapiens, MIA PaCa-2, 120 h
Protocol: as §2

cyclin Dl = experiment: Cyclin D1 knockdown (FIG. 12)
HS766T = experiment: 5 day viability assay (Pico Green), HS766T; type: cell-based; details: 120 h
Protocol: as §2

[5] = Synergy with CDK4/6 inhibitors (FIGS. 13A-13F)
PDA = experiment: Tumor volume, PARP inhibitor with or without shHuR; type: in vivo
Excerpt: HuR (ELAVL1) is an RNA binding protein that, upon exposure to a variety of intrinsic cancer related stressors, binds to a network of pro-survival mRNAs leading to an increase in their stability and translation. […] HuR CRISPR knockout PDA cell lines have a xenograft lethal phenotype. […] HuR is also important for oxaliplatin resistance in PDA. Utilizing a tumor microarray (TMA) from resected patient samples of PDA, it was discovered that 79% (n=80) of patients were positive for cytoplasmic HuR, with little to no cytoplasmic localization detected in adjacent normal tissues. HuR is a driver of chemoresistance in PDA and thus a prime target for re-sensitizing PDA cells to current therapies. While several compounds have been investigated as HuR inhibitors, to date there are no clinically viable HuR inhibitors.

[6] = mean of n1 and n2, read-out: Mean IC50
[7] = replicate n1, read-out: IC50, n1
[8] = replicate n2, read-out: IC50, n2

| Compound | Mean Max % I (COX2 DNA binding to HuR) | IC50 (COX2 DNA binding to HuR; [6]) | Max % I, n1 (COX2 DNA binding to HuR) | IC50 (COX2 DNA binding to HuR; [7]) | Max % I, n2 (COX2 DNA binding to HuR) | IC50 (COX2 DNA binding to HuR; [8]) | Mean Max % I (VEGF DNA binding to HuR) | IC50 (VEGF DNA binding to HuR; [6]) | Max % I, n1 (VEGF DNA binding to HuR) | IC50 (VEGF DNA binding to HuR; [7]) | Max % I, n2 (VEGF DNA binding to HuR) | IC50 (VEGF DNA binding to HuR; [8]) | also measured |
| --- | --- | --- | --- | --- | --- | --- | --- | --- | --- | --- | --- | --- | --- |
| Cc1occ2c1C(=O)c1c(O)ccc(O)c1C2 [MS444] | 100.0% | 33 nM | 100.0% | 33 nM | 100.0% | 32 nM | 99.8% | 16 nM | 100.0% | 15 nM | 99.5% | 17 nM |  |
| Nc1ccn([C@@H]2O[C@H](CO)[C@@H](O)C2(F)F)c(=O)n1 [Gemcitabine] |  | > 20000 nM | 100.0% | > 20000 nM | 100.0% | > 20000 nM |  | > 20000 nM |  | > 20000 nM |  | > 20000 nM | IC50 [1]: > 20 µM; IC50 [2]: > 20 µM |
| CCN1CCN(Cc2ccc(Nc3ncc(F)c(-c4cc(F)c5nc(C)n(C(C)C)c5c4)n3)nc2)CC1 [ademaciclib] |  |  |  |  |  |  |  |  |  |  |  |  | efficacy in in vivo models [3]: efficacious |
| Verteporfin | 92.7% | 29 nM | 92.9% | 28 nM | 92.4% | 30 nM | 74.7% | 144 nM | 77.0% | 167 nM | 72.4% | 124 nM |  |
| COc1ccc(C(CC(=O)N2CCCC2)c2c(OC)cc(OC)c3c(-c4ccccc4)cc(=O)oc23)cc1 (stereo not drawn) [CMLD2] | 81.6% | 674 nM | 81.1% | 593 nM | 82.1% | 767 nM | 78.7% | 1290 nM | 85.6% | 1280 nM | 71.9% | 1300 nM |  |
| Dihydro-tashinone | 100.0% | 5470 nM | 100.0% | 4080 nM | 100.0% | 7340 nM | 100.0% | 7380 nM | 100.0% | 6100 nM | 100.0% | 8930 nM |  |
| Cc1cc(/C=C/c2ccc3cc(N(C)C)ccc3[n+]2C)c(C)n1-c1ccccc1 [PP, pyrvinium pamoate] | 89.3% | 198 nM | 88.8% | 340 nM | 89.8% | 115 nM | 86.8% | 149 nM | 87.2% | 187 nM | 86.5% | 118 nM | tumor growth (MIA-PaCa2 cells): reduced tumor growth; tumor growth (MIA-PaCa2 cells; listed as pyrvinium pamoate): significant decrease; mouse weights (MIA-PaCa2 cells; 1 mg/kg IP 3 times weekly, MIA-PaCa2 tumor-bearing mice): no changes; IC50 (CFPAC): 21 nM; urine levels of pyrvinium vs the 24 hr prior to administration [4]: not significantly different; IC50 [1]: 0.207 to 0.453 µM; IC50 (Panc-1): 92 nM; IC50 (PDX-X139): 9 nM; efficacy in in vivo models [3]: efficacious; IC50 [2]: 0.203 to 0.416 µM; IC50 (KTC Organoids): 93 nM; IC50 (MIA-PaCa2): 40 nM; knockdown of cyclin Dl (cyclin Dl): causes a knockdown; IC50 (HS766T): 93 nM; effect with CDK4/6 inhibitors [5]: synergistic effect |
| O=C(c1cc(Cc2n[nH]c(=O)c3ccccc23)ccc1F)N1CCN(C(=O)C2CC2)CC1 [olaparib] |  |  |  |  |  |  |  |  |  |  |  |  | reduction in tumor volume (PDA; combined with shHuR (DOX-inducible)): 9.3 fold; reduction in tumor volume (PDA; olaparib alone): 5.6 fold |
| O=C1[O][Pt]2([NH][C@@H]3CCCC[C@H]3[NH]2)[O]C1=O [Oxaliplatin] |  | > 20000 nM | 100.0% | > 20000 nM | 100.0% | > 20000 nM |  | > 20000 nM |  | > 20000 nM |  | > 20000 nM | IC50 [1]: > 20 µM; IC50 [2]: > 20 µM |
| CC(=O)O[C@H]1C(=O)[C@@]2(C)[C@H]([C@H](OC(=O)c3ccccc3)[C@]3(O)C[C@H](OC(=O)[C@H](O)[C@@H](NC(=O)c4ccccc4)c4ccccc4)C(C)=C1C3(C)C)[C@]1(OC(C)=O)CO[C@@H]1C[C@@H]2O [Paclitaxel] | 83.8% | 2950 nM |  | 2220 nM | 84.1% | 3910 nM | 78.3% | 5410 nM |  | 5050 nM | 74.9% | 5790 nM |  |
| Cc1cccc2c3c(ccc12)C1=C(C(=O)C3=O)[C@@H](C)CO1 [DHTS] | 94.0% | 599 nM | 100.0% | 1080 nM | 88.1% | 332 nM | 92.9% | 1500 nM | 86.5% | 1070 nM | 99.2% | 2120 nM |  |
